The target in assay [1] is human STING ligand-binding domain (hSTING-LBD) (Homo sapiens, UniProt Q86WV6). As to the kind of experiment: BLI Kd.
Assay [2] has as its target T1, mouse STING ligand-binding domain (mSTING-LBD) (Mus musculus, UniProt Q3TBT3).
T1 sequence (Q3TBT3 146-370): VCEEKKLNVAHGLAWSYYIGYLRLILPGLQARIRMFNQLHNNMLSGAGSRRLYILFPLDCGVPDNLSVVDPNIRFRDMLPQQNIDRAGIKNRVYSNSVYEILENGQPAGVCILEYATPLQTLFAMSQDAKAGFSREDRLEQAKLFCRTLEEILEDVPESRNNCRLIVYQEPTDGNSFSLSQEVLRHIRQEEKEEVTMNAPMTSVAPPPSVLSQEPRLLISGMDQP
As to the kind of experiment: BLI.

Sequence of human STING ligand-binding domain (hSTING-LBD) (Q86WV6 155-343): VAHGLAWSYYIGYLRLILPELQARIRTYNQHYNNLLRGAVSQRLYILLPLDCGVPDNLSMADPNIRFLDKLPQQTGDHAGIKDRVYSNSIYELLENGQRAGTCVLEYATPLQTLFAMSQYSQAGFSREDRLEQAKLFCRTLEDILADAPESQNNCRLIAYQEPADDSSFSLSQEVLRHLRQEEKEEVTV

Turning to `C=CCc1ccc(O)c(-c2ccc(O)c(CC=C)c2)c1` [honokiol], the Kd worked out at 12.9 ± 0.4 µM in assay [1] and 17 ± 0.5 µM in assay [2].

The values are drawn from publication PMC12296492 (Cell Reports Methods, 2025).
